# Experimental data: patent publication US20070099276A1, “Retrovirus-like particles and retroviral vaccines” (priority 2003, published 2007)
# Biological target: HIV protease (Human immunodeficiency virus type 1 group M subtype B, UniProt P12497)
# Assay type: cell-based, HIV-1
# Description: Retrovirus-like particles and virions were isolated by centrifugation through a 20% sucrose pad in a SW28.1Ti rotor (Beckman-Coulter, Inc., Fullerton, Calif.) at 120,000 g at 4° C. for 1 hour. Immunoblot analyses of retrovirus-like particles and virion preparations (the equivalent of 10% of the transfection supernatant) were performed as previously described, using peroxidase-conjugated secondary antibodies and developed with the Enhanced ChemiLuminescence reagent (Amersham Life Science, Arlington Heights, Ill.). Rabbit antiserum against p6Gag (DJ-30552) and goat antiserum against, p7NC (#77), p17MA (#83), or p24CA (#81) were obtained from the AIDS Vaccine Program. Monoclonal antibody against reverse transcriptase was obtained from Perkin Elmer/NEN Life Science. N-terminal protein sequence analysis was carried out on an Applied Biosystems Procise model 494 microsequencer (Foster City, Calif.) as previously described (Chertova et al., J. Virol., 76:5315 (2002)). Micro-scale high-pressure liquid chromatography (HPLC) was performed as previously described (Chertova et al., J. Virol. 76:5315 (2002)). Matrix-assisted laser desorption/ionization-time-of-flight (MALDI) mass spectrometry was carried out as previously described (Ott et al., J. Virol., 73:19 (1999)) using a Kratos Kompact Probe (Kratos Analytical Inc., Chestnut Ridge, N.Y.).
# To examine protease activity and mutant budding in another way, 293T cells were transfected with pNL4-3 or DelNC and then treated without or with 10 nM of the protease inhibitor Saquinavir for 24 hours.
smiles,measurement,value
CC(C)(C)NC(=O)[C@@H]1C[C@@H]2CCCC[C@@H]2CN1C[C@@H](O)[C@H](Cc1ccccc1)NC(=O)[C@H](CC(N)=O)NC(=O)c1ccc2ccccc2n1 [Saquinavir],effect on DelNC Gag processing,essentially eliminated
same,effect on amount of pNL4-3 virions in the medium,not largely increased
same,effect on cleavage of NL4-3 Gag,only a slight reduction
same,effect on production of DelNC retrovirus-like particles,increased
